Data on 73 compounds can be found in patent publication US6972296B2, “Carboxylic acid derivatives that inhibit the binding of integrins to their receptors” (Encysive Pharmaceuticals Inc., priority 1999, dated 2005).

The IC50 is the concentration that inhibits the measured activity by half.

T1 sequence (P13612 34-1032): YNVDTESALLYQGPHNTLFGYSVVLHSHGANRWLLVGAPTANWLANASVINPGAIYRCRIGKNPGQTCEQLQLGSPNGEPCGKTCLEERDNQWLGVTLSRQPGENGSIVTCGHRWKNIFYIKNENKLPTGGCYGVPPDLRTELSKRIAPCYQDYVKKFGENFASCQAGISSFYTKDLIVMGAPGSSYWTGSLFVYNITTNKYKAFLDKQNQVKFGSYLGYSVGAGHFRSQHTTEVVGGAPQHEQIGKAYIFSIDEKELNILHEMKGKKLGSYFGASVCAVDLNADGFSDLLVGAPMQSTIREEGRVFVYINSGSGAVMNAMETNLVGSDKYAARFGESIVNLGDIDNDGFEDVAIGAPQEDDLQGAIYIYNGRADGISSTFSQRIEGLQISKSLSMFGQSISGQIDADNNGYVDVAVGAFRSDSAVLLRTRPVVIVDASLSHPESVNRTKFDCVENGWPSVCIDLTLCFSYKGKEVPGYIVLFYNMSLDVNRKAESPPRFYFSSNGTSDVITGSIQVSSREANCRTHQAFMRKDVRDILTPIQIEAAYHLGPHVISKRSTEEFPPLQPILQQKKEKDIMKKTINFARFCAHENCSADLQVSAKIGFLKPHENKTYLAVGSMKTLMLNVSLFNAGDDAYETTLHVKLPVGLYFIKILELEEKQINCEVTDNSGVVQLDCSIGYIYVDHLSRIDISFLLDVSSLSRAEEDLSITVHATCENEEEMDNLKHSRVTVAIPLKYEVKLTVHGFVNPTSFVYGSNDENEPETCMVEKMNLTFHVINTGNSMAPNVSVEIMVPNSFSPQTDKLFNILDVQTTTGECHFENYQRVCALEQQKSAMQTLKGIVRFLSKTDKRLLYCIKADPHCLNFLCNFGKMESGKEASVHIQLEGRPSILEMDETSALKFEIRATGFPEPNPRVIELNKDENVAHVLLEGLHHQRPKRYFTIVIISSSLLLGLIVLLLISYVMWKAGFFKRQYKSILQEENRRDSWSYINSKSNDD
T1 sequence (P05556 21-798): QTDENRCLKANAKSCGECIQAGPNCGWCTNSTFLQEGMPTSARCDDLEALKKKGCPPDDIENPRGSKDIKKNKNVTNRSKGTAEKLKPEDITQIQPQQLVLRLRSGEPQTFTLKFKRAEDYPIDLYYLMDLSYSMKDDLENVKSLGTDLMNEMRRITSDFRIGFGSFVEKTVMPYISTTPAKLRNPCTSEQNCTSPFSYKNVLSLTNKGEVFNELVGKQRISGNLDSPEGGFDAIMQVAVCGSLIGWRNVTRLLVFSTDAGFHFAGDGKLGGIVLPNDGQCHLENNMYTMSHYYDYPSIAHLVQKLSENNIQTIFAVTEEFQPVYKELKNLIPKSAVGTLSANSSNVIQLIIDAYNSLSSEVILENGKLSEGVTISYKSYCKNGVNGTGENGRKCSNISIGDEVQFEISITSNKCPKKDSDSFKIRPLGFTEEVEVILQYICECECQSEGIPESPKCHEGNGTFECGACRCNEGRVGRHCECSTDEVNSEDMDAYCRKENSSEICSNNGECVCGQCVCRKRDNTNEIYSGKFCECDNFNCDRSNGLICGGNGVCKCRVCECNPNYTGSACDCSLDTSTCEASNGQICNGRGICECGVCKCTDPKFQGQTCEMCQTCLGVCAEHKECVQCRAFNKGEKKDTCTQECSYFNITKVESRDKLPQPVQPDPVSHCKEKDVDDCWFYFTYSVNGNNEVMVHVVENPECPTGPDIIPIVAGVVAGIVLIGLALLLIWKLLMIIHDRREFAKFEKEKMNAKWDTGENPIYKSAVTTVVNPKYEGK

One experiment addresses T1, α4β1 integrin (Homo sapiens, UniProt P05556+P13612).
T1 construct: endogenous in cells; host or cells: Ramos cells
Put plainly: Adhesion of calcein-labeled Ramos cells to CS1 (fibronectin) peptide conjugated ovalbumin. Format: cell-based. Particulars: Table 5; Ramos cell adhesion to CS1 conjugated ovalbumin; dose required to give 50% inhibition. The essentials:
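Plates bearing CS1 fibronectin peptide coupled to ovalbumin (0.5 μg/ml coat, 3% BSA block) received calcein-labelled Ramos cells plus compound (100 μM stated) for 30 min at 37 °C. Buffer was TBS pH 7.5 with 1 mM Mg2+, Ca2+, Mn2+; bound cells quantified by fluorescence after lysis; […].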
On to `O=C(O)CC(NC(=O)Nc1c(O)ccn(Cc2ccccc2Cl)c1=O)c1cccc2ccccc12` (stereo not shown), for which the IC50 is 200 nM.
Same read-out and setting: under `Cc1cn(Cc2ccccc2Cl)c(=O)c(NC(=O)NC(CC(=O)O)c2ccc3ccccc3c2)c1O` (stereo not shown) stands 30 nM; under `Cc1ccc([C@@H](CC(=O)O)NC(=O)Nc2c(O)ccn(Cc3ccccc3Cl)c2=O)cc1`, 300 nM; under `O=C(O)C[C@@H](Cc1ccccn1)NC(=O)Nc1c(O)ccn(Cc2ccccc2Cl)c1=O`, 225 nM.
Still for that read-out and setting: in the case of `C[C@H](CC(=O)O)NC(=O)Nc1c(O)ccn(Cc2ccccc2Cl)c1=O` it was 190 nM.
The same measure, in the same setting: under `O=C(O)C[C@H](NC(=O)Nc1c(O)ccn(Cc2ccccc2Cl)c1=O)c1cc(C(F)(F)F)cc(C(F)(F)F)c1` stands 220 nM.
As to `CCOc1ccc([C@H](CC(=O)O)NC(=O)Nc2c(O)c(C)c(C)n(Cc3c(C)cccc3Cl)c2=O)cc1OCC`, the IC50 is 4 nM.
On to `CSc1ccc(Cl)c(Cn2ccc(O)c(NC(=O)N[C@@H](CC(=O)O)c3ccc(C)cc3)c2=O)c1`, for which the IC50 is 15 nM.
On the same count and under the same terms, in the case of `Cc1ccc([C@H](CC(=O)O)NC(=O)Nc2cccn(Cc3cc(O)ccc3Cl)c2=O)cc1` it was 250 nM; in that of `COc1ccc(Cl)c(Cn2cccc(NC(=O)N[C@@H](CC(=O)O)c3ccc(C)cc3)c2=O)c1`, 90 nM.
For the compound `Cc1ccc([C@H](CC(=O)O)NC(=O)Nc2cccn(Cc3c(O)cccc3Cl)c2=O)cc1`, the half-maximal inhibitory concentration (IC50) was 100 nM.
With `Cc1ccc([C@H](CC(=O)O)NC(=O)Nc2c(O)c(C)c(C)n(Cc3c(C)cccc3Cl)c2=O)cc1`, the IC50 was 30 nM.
Same read-out and setting: under `COc1cc([C@H](CC(=O)O)NC(=O)Nc2c(O)c(C)c(C)n(Cc3c(C)cccc3Cl)c2=O)ccc1C` stands 25 nM.
Regarding `CCOc1cccc([C@H](CC(=O)O)NC(=O)Nc2c(O)c(C)c(C)n(Cc3c(C)cccc3Cl)c2=O)c1`, the IC50 was 15 nM.
Regarding `COc1cc(C)c([C@H](CC(=O)O)NC(=O)Nc2c(O)ccn(Cc3ccccc3Cl)c2=O)cc1C`, the half-maximal inhibitory concentration (IC50) is 80 nM.
Regarding `CCc1cccc([C@H](CC(=O)O)NC(=O)Nc2c(O)ccn(Cc3ccccc3Cl)c2=O)c1`, the IC50 was 15 nM.
Turning to `COc1ccc([C@H](CC(=O)O)NC(=O)Nc2c(O)ccn(Cc3ccccc3Cl)c2=O)cc1F`, the IC50 was 15 nM.
Same read-out and setting: under `Cc1ccc(C[C@@H](CC(=O)O)NC(=O)Nc2c(O)ccn(Cc3ccccc3Cl)c2=O)cc1` stands 30000 nM; under `COc1cc([C@H](CC(=O)O)NC(=O)Nc2c(O)c(C)cn(Cc3ccccc3Cl)c2=O)ccc1C`, 20 nM.
On the same count and under the same terms, under `COc1cc([C@H](CC(=O)O)NC(=O)Nc2c(O)c(C)c(C)n(Cc3ccccc3Cl)c2=O)ccc1C` stands 15 nM; under `Cc1ccc([C@H](CC(=O)O)NC(=O)Nc2c(O)ccn(Cc3ccc(Cl)cc3Cl)c2=O)cc1`, 60 nM.
For the compound `Cc1ccc([C@H](CC(=O)O)NC(=O)Nc2c(O)ccn(Cc3cc(F)ccc3F)c2=O)cc1`, the IC50 is 15 nM.
The same measure, in the same setting: in the case of `Cc1ccc([C@H](CC(=O)O)NC(=O)Nc2c(O)ccn(Cc3c(C)cccc3C)c2=O)cc1` it was 35 nM; in that of `Cc1ccc([C@H](CC(=O)O)NC(=O)Nc2cccn(Cc3cccc(C(C)(C)C)c3O)c2=O)cc1`, 4000 nM; in that of `COc1c(Cn2cccc(NC(=O)N[C@@H](CC(=O)O)c3ccc(C)cc3)c2=O)cccc1C(C)(C)C`, 2500 nM.
For the compound `CCCc1cn(Cc2ccc(Cl)cc2)c(=O)c(NC(=O)N[C@@H](CC(=O)O)c2ccc(OCC)c(OCC)c2)c1O`, the IC50 is 15 nM.
Still for that read-out and setting: under `CCCc1cn(Cc2ccc(Cl)cc2)c(=O)c(NC(=O)N[C@@H](CC(=O)O)c2cccc(OCC)c2)c1O` stands 30 nM.
On the same count and under the same terms, under `Cc1ccc([C@H](CC(=O)O)NC(=O)Nc2cccn(Cc3ccc(F)cc3)c2=O)cc1` stands 2000 nM; under `Cc1ccc([C@H](CC(=O)O)NC(=O)Nc2c(O)ccn(Cc3ccccc3S(C)(=O)=O)c2=O)cc1`, 35 nM.
Still for that read-out and setting: in the case of `COc1ccccc1Cn1ccc(O)c(NC(=O)N[C@@H](CC(=O)O)c2ccc(C)cc2)c1=O` it was 80 nM.

Still in this experiment, the particulars now being: Table 6; Ramos cell adhesion to CS1 conjugated ovalbumin, 30 minutes at 37° C.
`COc1ccc2cc(C(CC(=O)O)NC(=O)Nc3c(O)c(C)cn(Cc4c(C)cccc4Cl)c3=O)ccc2c1` (stereo not shown): the IC50 was 35 nM.
As to `Cc1cc(C(CC(=O)O)NC(=O)Nc2c(O)ccn(Cc3ccccc3Cl)c2=O)oc1C` (stereo not shown), the IC50 was 115 nM.
With `COc1ccc(C(CC(=O)O)NC(=O)Nc2c(O)ccn(Cc3ccccc3Cl)c2=O)c2ccccc12` (stereo not shown), the IC50 was 160 nM.
Take `O=C(O)CC(NC(=O)Nc1c(O)ccn(Cc2ccccc2Cl)c1=O)c1cccs1` (stereo not shown): the IC50 was 30 nM.
Same read-out and setting: under `O=C(O)CC(NC(=O)Nc1c(O)ccn(Cc2ccccc2Cl)c1=O)c1ccc2ccccc2n1` (stereo not shown) stands 105 nM; under `O=C(O)C[C@@H](CCc1ccccc1)NC(=O)Nc1c(O)ccn(Cc2ccccc2Cl)c1=O`, 115 nM; under `CCCCOc1cccc([C@H](CC(=O)O)NC(=O)Nc2c(O)c3c(n(Cc4ccccc4Cl)c2=O)CCC3)c1`, 20 nM.
Still for that read-out and setting: in the case of `Cc1ccc([C@H](CC(=O)O)NC(=O)Nc2c(O)c(C)cn(Cc3cc(OC(C)C)ccc3Cl)c2=O)cc1` it was 7 nM; in that of `CCOc1cccc(Cl)c1Cn1ccc(O)c(NC(=O)N[C@@H](CC(=O)O)c2ccc(C)cc2)c1=O`, 7 nM; in that of `CCCc1cn(Cc2c(Cl)cccc2OC)c(=O)c(NC(=O)N[C@@H](CC(=O)O)c2ccc(C)c(C)c2)c1O`, 17 nM.
Same read-out and setting: in the case of `CCCc1cn(Cc2c(Cl)cccc2OC)c(=O)c(NC(=O)N[C@@H](CC(=O)O)c2ccc(C)c(OC)c2)c1O` it was 15 nM; in that of `CCCc1cn(Cc2c(Cl)cccc2OC)c(=O)c(NC(=O)N[C@@H](CC(=O)O)c2cccc(OCC)c2)c1O`, 7 nM; in that of `COc1cc([C@H](CC(=O)O)NC(=O)Nc2c(O)c(C)cn(Cc3c(Cl)cccc3OC)c2=O)ccc1C`, 6 nM.
With `COc1cccc(Cl)c1Cn1cc(C)c(O)c(NC(=O)N[C@@H](CC(=O)O)c2ccc(C)cc2)c1=O`, the 50% inhibitory concentration (IC50) was 5 nM.
On the same count and under the same terms, in the case of `CCCc1cn(Cc2c(Cl)cccc2OC)c(=O)c(NC(=O)N[C@@H](CC(=O)O)c2ccc(OCC)c(OCC)c2)c1O` it was 3 nM; in that of `CCCc1cn(Cc2c(Cl)cccc2OC)c(=O)c(NC(=O)N[C@@H](CC(=O)O)c2ccc(C)cc2)c1O`, 15 nM.
On the same count and under the same terms, in the case of `CCOc1cccc([C@H](CC(=O)O)NC(=O)Nc2c(O)c(C)cn(Cc3c(C)cccc3Cl)c2=O)c1` it was 4 nM; in that of `COc1cc([C@H](CC(=O)O)NC(=O)Nc2c(O)c(C)cn(Cc3c(C)cccc3Cl)c2=O)ccc1C`, 25 nM; in that of `Cc1ccc([C@H](CC(=O)O)NC(=O)Nc2c(O)c(C)cn(Cc3c(C)cccc3Cl)c2=O)cc1C`, 45 nM.
Take `CCOc1cc(OCC)cc([C@H](CC(=O)O)NC(=O)Nc2c(O)ccn(Cc3ccccc3Cl)c2=O)c1`: the IC50 was 7 nM.
Same read-out and setting: under `O=C(O)C[C@H](NC(=O)Nc1c(O)ccn(Cc2ccccc2Cl)c1=O)c1ccccn1` stands 150 nM.
In the case of `Cc1ccc([C@H](CC(=O)O)NC(=O)Nc2c(O)c3ccccc3n(Cc3ccccc3Cl)c2=O)cc1C`, the IC50 is 25 nM.
Regarding `Cn1ccc2cc([C@H](CC(=O)O)NC(=O)Nc3c(O)ccn(Cc4ccccc4Cl)c3=O)ccc21`, the IC50 was 3 nM.
For `CCOc1ccc([C@H](CC(=O)O)NC(=O)Nc2c(O)c3ccccc3n(Cc3ccccc3Cl)c2=O)cc1OCC`, the IC50 is 4 nM.
In the case of `COc1cc([C@H](CC(=O)O)NC(=O)Nc2c(O)c3ccccc3n(Cc3ccccc3Cl)c2=O)ccc1C`, the IC50 is 14 nM.
On the same count and under the same terms, under `O=C(O)C[C@H](NC(=O)Nc1c(O)ccn(Cc2ccccc2Cl)c1=O)c1cccc(OC2CCCC2)c1` stands 5 nM; under `O=C(O)C[C@H](NC(=O)Nc1c(O)ccn(Cc2ccccc2Cl)c1=O)c1ccc(OC(F)F)cc1`, 30 nM; under `CCOc1cccc([C@H](CC(=O)O)NC(=O)Nc2c(O)c3ccccc3n(Cc3ccccc3Cl)c2=O)c1`, 12 nM.
Same read-out and setting: in the case of `Cc1ccc([C@H](CC(=O)O)NC(=O)Nc2c(O)c3c(n(Cc4ccccc4Cl)c2=O)CCC3)cc1C` it was 18 nM; in that of `Cc1ccc([C@H](CC(=O)O)NC(=O)Nc2c(O)c(C(C)C)cn(Cc3ccccc3Cl)c2=O)cc1`, 60 nM; in that of `Cc1cn(Cc2ccccc2Cl)c(=O)c(NC(=O)N[C@@H](CC(=O)O)c2ccc3c(ccn3C)c2)c1O`, 3 nM.
On the same count and under the same terms, in the case of `COc1ccc2cc([C@H](CC(=O)O)NC(=O)Nc3c(O)c(C)cn(Cc4ccccc4Cl)c3=O)ccc2c1` it was 5 nM.
As for `Cc1ccc([C@H](CC(=O)O)NC(=O)Nc2c(O)c(C)c(C)n(Cc3ccccc3Cl)c2=O)cc1C`, the IC50 is 40 nM.
For `CCOc1ccc([C@H](CC(=O)O)NC(=O)Nc2c(O)c(C3CC3)cn(Cc3ccccc3Cl)c2=O)cc1OCC`, the IC50 is 6 nM.
Still for that read-out and setting: under `CCOc1cccc([C@H](CC(=O)O)NC(=O)Nc2c(O)c(C3CC3)cn(Cc3ccccc3Cl)c2=O)c1` stands 14 nM; under `COc1cccc(F)c1Cn1cc(C)c(O)c(NC(=O)N[C@@H](CC(=O)O)c2ccc(C)cc2)c1=O`, 10 nM; under `COc1ccc(C(C)=O)cc1Cn1ccc(O)c(NC(=O)N[C@@H](CC(=O)O)c2ccc(C)cc2)c1=O`, 33 nM.
Still for that read-out and setting: in the case of `Cc1ccc([C@H](CC(=O)O)NC(=O)Nc2c(O)c(C)cn(Cc3cc(Cl)ccc3F)c2=O)cc1` it was 15 nM.
With `Cc1ccc([C@H](CC(=O)O)NC(=O)Nc2c(O)c(C)cn(Cc3cc(F)ccc3C)c2=O)cc1`, the IC50 is 20 nM.
The same measure, in the same setting: under `Cc1ccc([C@H](CC(=O)O)NC(=O)Nc2c(O)c(C)nn(Cc3ccccc3Cl)c2=O)cc1` stands 18 nM.
The same measure, in the same setting: under `CCOc1ccc([C@H](CC(=O)O)NC(=O)Nc2c(O)c(C)nn(Cc3ccccc3Cl)c2=O)cc1OCC` stands 3 nM; under `CCOc1cccc([C@H](CC(=O)O)NC(=O)Nc2c(O)c(C)nn(Cc3ccccc3Cl)c2=O)c1`, 5 nM; under `Cc1ccc([C@H](CC(=O)O)NC(=O)Nc2c(O)c(C)cn([C@@H](C)c3ccccc3)c2=O)cc1`, 1500 nM.
